Laboratory results as given in paper PMC7694773, “Synthesis, 3D-QSAR, and Molecular Modeling Studies of Triazole Bearing Compounds as a Promising Scaffold for Cyclooxygenase-2 Inhibition” (Pharmaceuticals, 2020).
Several values for one entry are separate records, joined by “and”; a condition that tells them apart may be missing. Equal entries are not always repeated. Where two headings read alike, the source gives them in different places.

Key:
[1] = target: T1, bovine COX-1 (Ovis aries, UniProt P05979); experiment: In vitro COX-1 inhibition, enzyme immunoassay kit (Cayman item no. 560131); type: biochemical; conditions: mean of two determinations
T1 construct: purchased Cayman Chemical 560131
T1 sequence (P05979 25-600): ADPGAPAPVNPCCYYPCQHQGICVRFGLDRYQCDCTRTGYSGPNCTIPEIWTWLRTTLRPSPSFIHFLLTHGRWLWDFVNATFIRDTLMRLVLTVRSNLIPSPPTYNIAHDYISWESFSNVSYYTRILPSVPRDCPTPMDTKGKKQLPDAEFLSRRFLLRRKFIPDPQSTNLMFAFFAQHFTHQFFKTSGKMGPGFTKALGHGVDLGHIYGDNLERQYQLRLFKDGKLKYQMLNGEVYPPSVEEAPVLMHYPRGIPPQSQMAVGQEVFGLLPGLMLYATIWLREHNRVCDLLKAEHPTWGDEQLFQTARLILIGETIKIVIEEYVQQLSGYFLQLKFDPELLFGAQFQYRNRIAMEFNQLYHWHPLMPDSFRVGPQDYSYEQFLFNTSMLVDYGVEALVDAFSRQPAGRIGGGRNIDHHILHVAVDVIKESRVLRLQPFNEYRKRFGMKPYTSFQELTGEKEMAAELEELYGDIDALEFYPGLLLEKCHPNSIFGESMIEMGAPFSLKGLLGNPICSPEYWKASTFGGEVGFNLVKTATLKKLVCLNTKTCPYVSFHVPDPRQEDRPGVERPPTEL
Description: (§1) The in vitro COX-1/COX-2 isozyme inhibition studies measure the ability of tested compounds to inhibit bovine COX-1 and human recombinant COX-2 using an enzyme immunoassay (COX inhibitor screening assay kit, item no. 560131) according to the manufacturer’s instructions. […].

[2] = target: T2, human recombinant COX-2 (Homo sapiens, UniProt P35354); experiment: In vitro COX-2 inhibition, enzyme immunoassay kit (Cayman item no. 560131); type: biochemical
T2 construct: purchased Cayman Chemical 560131
T2 sequence (P35354 18-604): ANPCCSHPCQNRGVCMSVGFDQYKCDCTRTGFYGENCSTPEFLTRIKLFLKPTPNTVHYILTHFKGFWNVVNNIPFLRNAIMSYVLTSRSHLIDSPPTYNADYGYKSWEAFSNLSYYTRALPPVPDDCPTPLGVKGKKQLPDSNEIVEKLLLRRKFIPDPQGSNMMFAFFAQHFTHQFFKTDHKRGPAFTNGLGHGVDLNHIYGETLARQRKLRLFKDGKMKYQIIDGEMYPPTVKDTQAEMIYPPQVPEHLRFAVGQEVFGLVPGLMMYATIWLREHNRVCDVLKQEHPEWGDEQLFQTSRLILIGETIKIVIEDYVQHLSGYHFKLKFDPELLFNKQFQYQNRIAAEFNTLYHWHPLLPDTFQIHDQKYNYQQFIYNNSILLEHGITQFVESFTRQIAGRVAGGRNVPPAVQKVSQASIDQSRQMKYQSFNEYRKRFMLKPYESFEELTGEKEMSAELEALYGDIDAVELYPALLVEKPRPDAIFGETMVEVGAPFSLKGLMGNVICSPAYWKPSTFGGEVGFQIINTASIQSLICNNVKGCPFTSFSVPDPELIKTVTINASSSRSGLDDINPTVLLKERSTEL
Description: as §1

[3] = target: T3, egg albumin (Gallus gallus, UniProt P01012); experiment: In situ anti-inflammatory assay: inhibition of protein (albumin) denaturation
T3 sequence (P01012 1-386): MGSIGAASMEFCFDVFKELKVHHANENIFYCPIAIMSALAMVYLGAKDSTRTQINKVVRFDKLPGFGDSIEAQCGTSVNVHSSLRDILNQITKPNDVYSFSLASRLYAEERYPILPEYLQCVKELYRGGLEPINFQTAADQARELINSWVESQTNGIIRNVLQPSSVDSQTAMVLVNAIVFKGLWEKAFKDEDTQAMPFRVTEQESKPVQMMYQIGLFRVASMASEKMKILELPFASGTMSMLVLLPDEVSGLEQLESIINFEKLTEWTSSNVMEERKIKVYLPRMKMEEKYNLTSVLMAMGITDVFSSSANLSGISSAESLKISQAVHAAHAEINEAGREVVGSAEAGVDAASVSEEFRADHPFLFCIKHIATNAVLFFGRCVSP
Experimental: Protein denaturation is used for the evaluation of anti-inflammatory activity. In this methodology, generally, tertiary and secondary protein structures will typically be destroyed by the application of an external molecule or stress. The biological function of most bio-proteins is lost if it is denatured. It is well reported that a basis of inflammation is denaturation of protein.
The reaction mixture is molecules with serial dilutions (1000, 100, 10, 1, 0.1 µM), phosphate buffered saline (PBS; pH 6.4), and egg albumin. The control used was double distilled water (equal volume). […] After attaining ambient temperature, the absorbance of samples was measured spectrophotometrically at 660 nm using vehicle as blank. […] The experiment was performed in triplicate. Percent inhibition of protein denaturation was calculated using the Equation Inhibition (%) of protein denaturation inhibition (%) = (AC − AS)/AC × 100 where AC: absorbance of control, AS: absorbance of sample.

IC50 [1]: 13000 nM | COX-2 S.I. (selectivity index, COX-1 IC50/COX-2 IC50) [2]: 311.0 and 325.0 | IC50 ([2]; human recombinant COX-2, mean of two determinations, read-out: IC50 COX-2): 40 nM | IC50 ([2]; pIC50 = −Log (IC50) of the COX-2 IC50, read-out: Activity (experimental pIC50, COX-2) (converted)): 41.8 nM and 40.1 nM | LogIC50 protein denaturation ([3]; GraphPad prism curve fit, IC50 in µM (Figure 3)): -0.008534 | IC50 ([3]; non-linear regression, sigmoidal dose-inhibition fit, GraphPad prism): 981 nM and 980 nM | inhibition at 1000 µM ([3]; protein denaturation, conc. 1000 µM, three replicates, read-out: % of inhibition ± SEM at conc. 1000): 91.2% | % of inhibition ± SEM at conc. 0.1 ([3]; protein denaturation, conc. 0.1 (µM), three replicates): 29.21±1.12% | % of inhibition ± SEM at conc. 1 ([3]; protein denaturation, conc. 1 (µM), three replicates): 59.20±1.34% | % of inhibition ± SEM at conc. 10 ([3]; protein denaturation, conc. 10 (µM), three replicates): 72.12±1.27% | % of inhibition ± SEM at conc. 100 ([3]; protein denaturation, conc. 100 (µM), three replicates): 89.31±1.26% | melting point: 69 to 70 °C
SMILES: COc1ccc(C=Nn2c(COc3ccc4ccccc4c3)nnc2Sc2cnc(N)s2)cc1 [Compound 12d, 5-((4-((4-methoxybenzylidene)amino)-5-((naphthalen-2-yloxy)methyl)-4H-1,2,4-triazol-3-yl)thio)thiazol-2-amine]
